In the NIST ThermoML archive (doi:10.1016/j.fluid.2006.01.024):
± gives the expanded uncertainty stated by the source.

Experiments:
[1] = Boiling temperature at pressure P; settings: 101.33 kPa; Liquid
[2] = refractive index (Na D-line) (dimensionless); settings: 298.2 K; 101.33 kPa; Liquid; Abbe refractometer
[3] = 298.2 K; 101.33 kPa; Liquid; Vibrating tube method

Compound	Boiling temperature at pressure P [1] [°C]	refractive index [2]	mass density [3] [kg/m3]
CCO [ethanol]	78.00 ± 0.4	1.3595 ± 0.0015	785.2 ± 0.2
C1CC[C@H]2CCCC[C@@H]2C1 [trans-decahydronaphthalene]	187.20 ± 0.4	1.4682 ± 0.0016	868.25 ± 0.15
